From the PolyMetriX glass transition set come the findings set out here.

± gives the standard deviation of the reports.

The molecule `*/C=C/C(C)C*` (repeat unit) had a glass transition temperature of -35.00 °C.
For `*/C=C/C1CC(*)C(C#N)(CC)C1` (repeat unit), the glass transition temperature is 134.00 °C.
The result for `*/C=C/C1CC(*)C(C#N)(CCC)C1` (repeat unit) reads 108.00 °C.
As for `*/C=C/C1CC(*)C(C#N)(CCCC)C1` (repeat unit), the glass transition temperature was found to be 87.00 °C.
As for `*/C=C/C1CC(*)C(C#N)(C[Si](C)(C)C)C1` (repeat unit), the glass transition temperature came out at 128.00 °C.
Molecule `*/C=C/C1CC(*)C(C#N)([Si](C)(C)O[Si](C)(C)O[Si](C)(C)C)C1` (repeat unit) showed a glass transition temperature of 47.00 °C.
`*/C=C/C1CC(*)C(C#N)C1` (repeat unit): the glass transition temperature amounted to 140.00 °C.
For the molecule `*/C=C/C1CC(*)C(C(=O)OCCCCCCCCOc2ccc(/C=C/c3ccc([N+](=O)[O-])cc3)cc2)C1` (repeat unit), the glass transition temperature was 51.00 °C.
Turning to `*/C=C/C1CC(*)C([Si](C)(C)C)C1` (repeat unit), the glass transition temperature is 113.00 °C.
The molecule `*/C=C/C1CC(*)C2C(=O)N(CCCCCCCCCC)C(=O)C12` (repeat unit) yielded a glass transition temperature of 46.00 °C.
The molecule `*/C=C/C1CC(*)C2C(=O)N(c3cc(C(F)(F)F)cc(C(F)(F)F)c3)C(=O)C12` (repeat unit) registered a glass transition temperature of 162.00 °C.
`*/C=C/C1CC(*)C2C(=O)N(c3ccccc3)C(=O)C12` (repeat unit) displayed a glass transition temperature of 220.00 °C.
In turn, `*/C=C/c1cc(CCCCCCCCCC)c(/C=C/c2ccc(-c3ccc(*)nc3)cn2)cc1CCCCCCCCCC` (repeat unit) registered a glass transition temperature of 68.00 °C.
As for `*/C=C/c1cc(OCC(CC)CCCC)c(*)cc1-c1ccc(F)c(C(F)(F)F)c1` (repeat unit), the glass transition temperature is 122.00 °C.
Consider `*/C=C/c1cc(OCC(CC)CCCC)c(/C=C/c2cc(OC)c(*)cc2OC)cc1OC` (repeat unit), for which the glass transition temperature worked out at 110.00 °C.
`*/C=C/c1cc(OCCCC)c(*)cc1OC` (repeat unit) came in with a glass transition temperature of 65.00 °C.
Molecule `*/C=C/c1cc(OCCCCCCCCCCCC)c(*)cc1OC` (repeat unit) displayed a glass transition temperature of 36.00 °C.
The result for `*/C=C/c1cc(OCCc2ccccc2)c(*)cc1OC` (repeat unit) reads 121.00 °C; that for `*/C=C/c1ccc(-c2nnc(-c3ccc(/C=C/c4ccc5c(c4)c4cc(*)ccc4n5CCCCCCCC)cc3)n2-c2ccccc2)cc1` (repeat unit), 147.00 °C; that for `*/C=C/c1ccc(-c2nnc(-c3ccc(/C=C/c4ccc5c(c4)c4cc(-c6ccc7c(c6)c6cc(*)ccc6n7CCCCCCCC)ccc4n5CCCCCCCC)cc3)n2-c2ccccc2)cc1` (repeat unit), 157.00 °C.
The molecule `*/C=C/c1ccc(/C=C/[Si](C)(C)c2cccc([Si](*)(C)C)c2)cc1` (repeat unit) had a glass transition temperature of 33.00 °C.
In turn, `*C/C=C/C(CC)S(*)(=O)=O` (repeat unit) came in with a glass transition temperature of 70.10 °C.
For the molecule `*CCCCCCCCCCCCOc1c(OC)cc(/C=C/c2ccc(/C=C/c3cc(OC)c(O*)c(OC)c3)cc2)cc1OC` (repeat unit), the glass transition temperature was found to be 61.10 °C.
With `*CCCCCCCCOc1c(OC)cc(/C=C/c2ccc(/C=C/c3cc(OC)c(O*)c(OC)c3)cc2)cc1OC` (repeat unit) the figure was 69.40 °C.
`*CCCCCCCCOc1ccc(/C=C2\CCC/C(=C\c3ccc(O*)cc3)C2=O)cc1` (repeat unit) showed a glass transition temperature of 90.00 °C.
Take `*CCOCCOCCOCCOc1ccc(/C=C(\C)c2ccc(O*)cc2)cc1` (repeat unit): the glass transition temperature was 7.50 °C.
`*Nc1ccc(Cc2ccc(NC(=O)/C=C/c3ccc(/C=C/C(*)=O)cc3)cc2)cc1` (repeat unit) returned a glass transition temperature of 230.00 °C.
With `*Oc1ccc(OC(=O)/C=C/c2ccc(/C=C/C(*)=O)cc2)cc1` (repeat unit) the figure was 210.00 °C; with `*c1cccc(N/C=C/C(=O)c2cccc(C(=O)/C=C/Nc3cccc(S(*)(=O)=O)c3)c2)c1` (repeat unit), 215.00 °C; with `*CC(*)(C)C(=O)OCCC(C)(C)C` (repeat unit) [Poly(3,3-dimethylbutyl methacrylate)], 45 ± 1.2 °C.
Consider `*CC(COC)O*` (repeat unit) [Poly(3-methoxypropylene oxide) ], for which the glass transition temperature was -62 ± 1.2 °C.
As to `*CC(*)c1ccc(O)cc1` (repeat unit) [Poly(4-hydroxystyrene)], the glass transition temperature worked out at 157.42 ± 0.8 °C.
Consider `*Oc1ccc(C(C)(C)c2ccc(OC(=O)c3ccc(C(*)=O)cc3)cc2)cc1` (repeat unit) [Poly(Bisphenol A terephthalate)], for which the glass transition temperature amounted to 199.92 ± 1.5 °C.
On to `*CC(*)C(=O)NC(C)(C)C` (repeat unit) [Poly(N-tert-butyl acrylamide)], for which the glass transition temperature is 131.42 ± 5.1 °C.
Take `*CC(*)(C)C(=O)OCc1ccccc1` (repeat unit) [Poly(benzyl methacrylate)]: the glass transition temperature was determined as 54.00 ± 0.5 °C.
Take `*Oc1ccc(C(C)(C)c2ccc(OC(=O)c3cccc(C(*)=O)c3)cc2)cc1` (repeat unit) [Poly(bisphenol A isophthalate)]: the glass transition temperature was 184.42 ± 6.3 °C.
As for `*CC(*)OCCCC` (repeat unit) [Poly(butyl vinyl ether)], the glass transition temperature was -52.08 ± 1.5 °C.
Take `*CC(*)CC` (repeat unit) [Poly(butylene)]: the glass transition temperature is -36.6 ± 12 °C.
As for `*CCCCCC(=O)O*` (repeat unit) [Poly(caprolactone)], the glass transition temperature turned out to be 55.0 ± 78 °C.
As for `*C(F)(F)C(*)(F)Cl` (repeat unit) [Poly(chlorotrifluoroethylene)], the glass transition temperature was found to be 69.47 ± 25 °C.
With `*CC(*)(C)C(=O)OC1CCCCC1` (repeat unit) [Poly(cyclohexyl methacrylate)] the figure was 101.92 ± 20 °C; with `*CC(*)(C)C(=O)OCCCCCCCCCC` (repeat unit) [Poly(decyl methacrylate)], -63.83 ± 1 °C; with `*CCCCCCCCCCCC(=O)N*` (repeat unit) [Poly(dodecano-12-lactam)], 38.4 ± 3.2 °C.
For the molecule `*CCOC(=O)c1ccc2cc(C(=O)O*)ccc2c1` (repeat unit) [Poly(ethylene 2,6-naphthalate)], the glass transition temperature was 121.42 ± 2.3 °C.
With `*CCOC(=O)O*` (repeat unit) [Poly(ethylene carbonate)] the figure was 10.92 ± 8.4 °C.
`*CCO*` (repeat unit) [Poly(ethylene glycol)] displayed a glass transition temperature of -15.6 ± 42 °C.
The molecule `*CCOC(=O)c1ccc(C(=O)O*)cc1` (repeat unit) [Poly(ethylene terephthalate)] yielded a glass transition temperature of 75 ± 3.5 °C.
With `*CC*` (repeat unit) [Poly(ethylene)] the figure was -54.00 ± 89 °C.
As to `*CCOC(=O)c1ccc(C(=O)O*)c2ccccc12` (repeat unit) [Poly(ethylene- 1 ,4-naphthalenedicarboxylate) ], the glass transition temperature was found to be 64 ± 1.2 °C.
